According to patent US10954214B2 (Janssen Pharmaceutica NV, priority 2016, dated 2021):

Experiments:
[1] = tested on: IL10 secretion by TMD8 ABC-DLBCL cells; assay: Human IL10 Mesoscale assay (TMD-8); assay type: cell-based; conditions: Homo sapiens, TMD8; TMD-8 cells, 24 h
Summary of the method: (§1)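 Read-out: MSD electrochemiluminescence of IL6/IL10 in supernatants. Cells (100,000/well, no beta-mercaptoethanol) were exposed to compounds at 15 μM down to 58.6 nM, 1:2 dilutions, for 24 h at 37° C, 5% CO2. Normalised between DMSO (high) and RN486 (low) controls.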

[2] = biological target: full-length MALT1 protein (Strep-MALT1(1-824)-His) (Homo sapiens (Human), UniProt Q9UDY8); assay: MALT1 Biochemical Protease Assay (Ac-LRSR-AMC substrate); conditions: 10 nM FL MALT1, 200 μM Ac-LRSR-AMC, 4 h at RT; read-out: MALT1_Biochemical activity (Ac-LRSR-amc) IC50
Chain of full-length MALT1 protein (Strep-MALT1(1-824)-His) (Q9UDY8 whole entry): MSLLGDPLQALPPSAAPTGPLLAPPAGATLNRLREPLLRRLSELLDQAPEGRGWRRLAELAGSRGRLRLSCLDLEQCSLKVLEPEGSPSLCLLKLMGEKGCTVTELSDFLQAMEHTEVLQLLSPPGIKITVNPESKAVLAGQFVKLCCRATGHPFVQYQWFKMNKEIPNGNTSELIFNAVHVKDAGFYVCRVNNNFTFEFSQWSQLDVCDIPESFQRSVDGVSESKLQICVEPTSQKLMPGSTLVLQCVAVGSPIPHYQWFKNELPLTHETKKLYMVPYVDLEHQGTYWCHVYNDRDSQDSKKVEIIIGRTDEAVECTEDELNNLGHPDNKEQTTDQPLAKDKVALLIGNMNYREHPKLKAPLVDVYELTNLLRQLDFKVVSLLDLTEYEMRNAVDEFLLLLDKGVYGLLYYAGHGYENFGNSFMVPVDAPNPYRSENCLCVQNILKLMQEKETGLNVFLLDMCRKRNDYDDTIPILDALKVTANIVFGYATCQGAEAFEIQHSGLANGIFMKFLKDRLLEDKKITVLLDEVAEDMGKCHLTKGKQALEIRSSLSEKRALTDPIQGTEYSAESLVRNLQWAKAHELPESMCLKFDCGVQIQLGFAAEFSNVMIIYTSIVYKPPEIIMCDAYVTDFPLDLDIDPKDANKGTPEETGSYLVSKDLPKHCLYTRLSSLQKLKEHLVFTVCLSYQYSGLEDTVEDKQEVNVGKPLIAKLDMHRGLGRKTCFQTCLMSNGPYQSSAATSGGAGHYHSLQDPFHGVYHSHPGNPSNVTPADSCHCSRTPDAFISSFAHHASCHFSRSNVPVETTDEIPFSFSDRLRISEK
Summary of the method: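 Full-length MALT1 pre-incubated with compounds (30 μM to 0.5 nM, 11 threefold steps) for 50 min at RT. After Ac-LRSR-AMC was added, the reaction ran 4 h at RT and AMC fluorescence was read. IC50 and Hill slope from curve fitting against no-enzyme and no-compound controls.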

[3] = tested on: IL6 secretion by OCI-LY3 ABC-DLBCL cells; assay: Human IL6 Mesoscale assay (OCI-LY3); assay type: cell-based; conditions: Homo sapiens, 24 h
Summary of the method: as §1

[4] = tested on: IL10 secretion by OCI-LY3 ABC-DLBCL cells; assay: Human IL10 Mesoscale assay (OCI-LY3); assay type: cell-based; conditions: Homo sapiens, 24 h
Summary of the method: as §1

[5] = tested on: IL6 secretion by TMD8 ABC-DLBCL cells; assay: Human IL6 Mesoscale assay (TMD-8); assay type: cell-based; conditions: Homo sapiens, TMD8; TMD-8 cells, 24 h
Summary of the method: as §1

| SMILES | IC50 [1] [nM] | IC50 [2] [nM] | IC50 [3] [nM] | IC50 [4] [nM] | IC50 [5] [nM] |
| --- | --- | --- | --- | --- | --- |
| NC(=O)c1cnn(-c2ccc(NC(=O)c3cnn(-c4cccc5ncccc45)c3C(F)(F)F)cc2Cl)n1 [Cpd 244, 2-(2-chloro-4-(1-(quinolin-5-yl)-5-(trifluoromethyl)-1H-pyrazole-4-carboxamido)phenyl)-2H-1,2,3-triazole-4-carboxamide] | 245 | 398 | 174 | 155 | 741 |
| Cn1ncc2cccc(-n3ncc(C(=O)Nc4cnc(-n5nccn5)c(C#N)c4)c3C(F)(F)F)c21 [Cpd 260, N-(5-cyano-6-(2H-1,2,3-triazol-2-yl)pyridin-3-yl)-1-(1-methyl-1H-indazol-7-yl)-5-(trifluoromethyl)-1H-pyrazole-4-carboxamide] | > 3020 | 204 | > 3020 | > 3020 | > 3020 |
| Cn1ccc(-c2ncc(NC(=O)c3cnn(-c4ccc(F)c5ncccc45)c3C(F)(F)F)cc2C#N)n1 [Cpd 268, N-(5-cyano-6-(1-methyl-1H-pyrazol-3-yl)pyridin-3-yl)-1-(8-fluoroquinolin-5-yl)-5-(trifluoromethyl)-1H-pyrazole-4-carboxamide] | 229 | 155 | 95 | 63 | 158 |
| O=C(Nc1cnc(-n2nccn2)c(Cl)c1)c1cnn(-c2cccc3nc(F)ccc23)c1C(F)(F)F [Cpd 277, N-(5-chloro-6-(2H-1,2,3-triazol-2-yl)pyridin-3-yl)-1-(2-fluoroquinolin-5-yl)-5-(trifluoromethyl)-1H-pyrazole-4-carboxamide] | 95 | 132 | 89 | 87 | 170 |
| Cc1nc(-n2cccn2)c(Cl)cc1NC(=O)c1cnn(-c2cccc3nnsc23)c1C(F)(F)F [Cpd 303, 1-(benzo[d][1,2,3]thiadiazol-7-yl)-N-(5-chloro-2-methyl-6-(1H-pyrazol-1-yl)pyridin-3-yl)-5-(trifluoromethyl)-1H-pyrazole-4-carboxamide] | 174 | 282 | 251 | 275 | 234 |
| CN(C)c1ncc(-n2ncc(C(=O)Nc3cnc(-n4nccn4)c(Cl)c3)c2C(F)(F)F)c2ccccc12 [Cpd 322, N-(5-chloro-6-(2H-1,2,3-triazol-2-yl)pyridin-3-yl)-1-(1-(dimethylamino)isoquinolin-4-yl)-5-(trifluoromethyl)-1H-pyrazole-4-carboxamide] | 708 | 214 | 148 | 135 | 562 |
| O=C1COC(c2ncc(-n3ncc(C(=O)Nc4cnc(-n5nccn5)c(Cl)c4)c3C(F)(F)F)c3ccccc23)C1 (stereo not shown) [Cpd 370, N-(5-chloro-6-(2H-1,2,3-triazol-2-yl)pyridin-3-yl)-1-(1-(4-oxotetrahydrofuran-2-yl)isoquinolin-4-yl)-5-(trifluoromethyl)-1H-pyrazole-4-carboxamide] | 46 | 107 | 13 | 10 | 54 |
| CC(O)c1ncc(-n2ncc(C(=O)Nc3cnc(-n4nccn4)c(Cl)c3)c2C(F)(F)F)c2ccccc12 (stereo not shown) [Cpd 371, N-(5-chloro-6-(2H-1,2,3-triazol-2-yl)pyridin-3-yl)-1-(1-(1-hydroxyethyl)isoquinolin-4-yl)-5-(trifluoromethyl)-1H-pyrazole-4-carboxamide] | 25 | 69 | 18 | 18 | 13 |
| CC(C)(C)OC(=O)N1CCC1c1nccc2c(-n3ncc(C(=O)Nc4cnc(-n5nccn5)c(Cl)c4)c3C(F)(F)F)cccc12 (stereo not shown) [Cpd 383, tert-butyl 2-(5-(4-((5-chloro-6-(2H-1,2,3-triazol-2-yl)pyridin-3-yl)carbamoyl)-5-(trifluoromethyl)-1H-pyrazol-1-yl)isoquinolin-1-yl)azetidine-1-carboxylate] | 105 | 10000 | 27 | 36 | 95 |
| O=C(Nc1cnc(-n2nccn2)c(Cl)c1)c1cnn(-c2cccc3c(C4CCN4)nccc23)c1C(F)(F)F (stereo not shown) [Cpd 384, 1-(1-(azetidin-2-yl)isoquinolin-5-yl)-N-(5-chloro-6-(2H-1,2,3-triazol-2-yl)pyridin-3-yl)-5-(trifluoromethyl)-1H-pyrazole-4-carboxamide] | 123 | 5890 | 18 | 14 | 120 |
| CNC(=O)c1ncc(-n2ncc(C(=O)Nc3cnc(-n4nccn4)c(Cl)c3)c2C(F)(F)F)c2ccsc12 [Cpd 392, 4-(4-((5-chloro-6-(2H-1,2,3-triazol-2-yl)pyridin-3-yl)carbamoyl)-5-(trifluoromethyl)-1H-pyrazol-1-yl)-N-methylthieno[2,3-c]pyridine-7-carboxamide] | 200 | 26 | 26 | 17 | 170 |
| O=C(Nc1cnc(-n2nccn2)c(Cl)c1)c1cnn(-c2cccc3c[n+]([O-])ccc23)c1C(F)(F)F [Cpd 407, 5-(4-((5-chloro-6-(2H-1,2,3-triazol-2-yl)pyridin-3-yl)carbamoyl)-5-(trifluoromethyl)-1H-pyrazol-1-yl)isoquinoline 2-oxide] | 100 | 21 | 34 | 40 | 110 |
| O=C(Nc1cnc(-n2nccn2)c(Cl)c1)c1cnn(-c2cccc3c2ccc[n+]3[O-])c1C(F)(F)F [Cpd 408, 5-(4-((5-chloro-6-(2H-1,2,3-triazol-2-yl)pyridin-3-yl)carbamoyl)-5-(trifluoromethyl)-1H-pyrazol-1-yl)quinoline 1-oxide] | 162 | 112 | 54 | 81 | 141 |
| O=C(Nc1cnc(-n2nccn2)c(Cl)c1)c1cnn(-c2cccc3cnccc23)c1C(F)(F)F [Cpd 449, N-(5-chloro-6-(2H-1,2,3-triazol-2-yl)pyridin-3-yl)-1-(isoquinolin-5-yl)-5-(trifluoromethyl)-1H-pyrazole-4-carboxamide] | 98 | 23 | 100 | 68 | 78 |
